For assay [1], the target named is T1, Melanocyte-stimulating hormone receptor (Homo sapiens, UniProt Q01726). The assay is described as follows: Displacement of [125I]NDP-alpha-MSH from human MC1BR expressed in CHO cells. It counts as cell-based.
Target sequence in this assay (Q01726 whole entry): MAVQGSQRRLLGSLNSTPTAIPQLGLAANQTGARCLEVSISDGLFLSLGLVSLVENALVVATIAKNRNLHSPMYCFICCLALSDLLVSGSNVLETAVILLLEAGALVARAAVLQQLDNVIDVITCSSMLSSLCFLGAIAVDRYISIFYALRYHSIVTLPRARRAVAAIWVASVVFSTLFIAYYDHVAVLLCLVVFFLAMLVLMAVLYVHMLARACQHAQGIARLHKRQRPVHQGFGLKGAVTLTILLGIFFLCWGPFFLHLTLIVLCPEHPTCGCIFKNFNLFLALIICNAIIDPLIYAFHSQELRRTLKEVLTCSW
Assay [2] concerns the target T2, Melanocortin receptor 4 (Homo sapiens, UniProt P32245). Nature of the assay: Displacement of [125I]NDP-alpha-MSH from human MC4R expressed in CHO cells. In kind it is cell-based.
The target in assay [3] is T3, Melanocortin receptor 3 (Homo sapiens, UniProt P41968). Nature of the assay: Displacement of [125I]NDP-alpha-MSH from human MC3R expressed in CHO cells. It counts as cell-based.
Assay [4] concerns the target T4, Melanocortin receptor 5 (Homo sapiens, UniProt P33032). Nature of the assay: Displacement of [125I]NDP-alpha-MSH from human MC5R expressed in CHO cells. It counts as cell-based.
Assay [5] addresses T1, Melanocyte-stimulating hormone receptor. Nature of the assay: Activity against human MC1BR by cAMP accumulation. It counts as functional.
Target sequence in this assay (Q01726 whole entry): as above
Assay [6] has the same target. The assay is described as follows: Activity against human MC1R by percentage of cAMP accumulation at 10 uM. It counts as functional.
Target sequence in this assay (Q01726 whole entry, looked up): as the sequence (Q01726 whole entry) above
The target of assay [7] is T2, Melanocortin receptor 4. Nature of the assay: Activity against human MC4R by cAMP accumulation. It counts as functional.
The target in assay [8] is T2, Melanocortin receptor 4. Nature of the assay: Activity against human MC4R by percentage of cAMP accumulation at 10 uM. It counts as functional.
Assay [9] addresses T3, Melanocortin receptor 3. Nature of the assay: Activity against human MC3R by percentage of cAMP accumulation at 10 uM. In kind it is functional.
Assay [10] addresses T4, Melanocortin receptor 5. Nature of the assay: Activity against human MC5R by cAMP accumulation. In kind it is functional.
Assay [11] concerns the target T4, Melanocortin receptor 5. The assay is described as follows: Activity against human MC5R by percentage of cAMP accumulation at 10 uM. It counts as functional.
For assay [12], the target named is T3, Melanocortin receptor 3. The assay is described as follows: Activity against human MC3R by cAMP accumulation. In kind it is functional.

T2 sequence (P32245 whole entry): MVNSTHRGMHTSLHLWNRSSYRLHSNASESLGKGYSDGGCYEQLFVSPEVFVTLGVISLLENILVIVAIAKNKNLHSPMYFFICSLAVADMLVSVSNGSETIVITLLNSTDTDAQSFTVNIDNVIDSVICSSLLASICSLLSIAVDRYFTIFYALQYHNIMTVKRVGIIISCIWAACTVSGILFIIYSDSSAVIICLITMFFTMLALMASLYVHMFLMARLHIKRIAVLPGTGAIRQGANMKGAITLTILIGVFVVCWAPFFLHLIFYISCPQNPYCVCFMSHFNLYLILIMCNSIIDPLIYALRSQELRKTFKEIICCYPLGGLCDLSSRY
T4 sequence (P33032 whole entry): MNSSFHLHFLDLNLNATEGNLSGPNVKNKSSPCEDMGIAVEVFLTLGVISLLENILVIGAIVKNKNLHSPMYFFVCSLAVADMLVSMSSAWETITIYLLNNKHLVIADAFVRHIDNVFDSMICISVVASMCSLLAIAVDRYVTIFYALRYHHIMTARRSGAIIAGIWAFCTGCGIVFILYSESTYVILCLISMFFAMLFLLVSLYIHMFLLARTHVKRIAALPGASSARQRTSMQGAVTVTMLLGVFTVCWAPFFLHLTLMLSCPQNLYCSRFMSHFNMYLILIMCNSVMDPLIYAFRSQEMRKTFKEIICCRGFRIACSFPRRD
T3 sequence (P41968 whole entry): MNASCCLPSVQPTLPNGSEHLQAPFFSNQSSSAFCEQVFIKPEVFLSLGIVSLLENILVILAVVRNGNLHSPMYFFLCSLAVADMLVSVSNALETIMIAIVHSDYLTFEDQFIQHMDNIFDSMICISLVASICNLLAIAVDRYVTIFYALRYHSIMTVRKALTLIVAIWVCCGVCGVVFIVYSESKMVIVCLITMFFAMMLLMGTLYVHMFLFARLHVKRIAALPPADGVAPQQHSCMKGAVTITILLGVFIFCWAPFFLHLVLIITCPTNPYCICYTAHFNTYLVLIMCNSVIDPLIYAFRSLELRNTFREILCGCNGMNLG

In the case of `O=C(N[C@H](Cc1ccc(Cl)cc1)C(=O)N1CCC(CN2CCOC2=O)(C2CCCCC2)CC1)[C@H]1Cc2ccccc2CN1`, the half-maximal inhibitory concentration (IC50) is 2 µM in [1], 0.004 µM on Melanocortin receptor 4 [2], 0.46 µM at Melanocortin receptor 3 [3] and 0.18 µM on Melanocortin receptor 5 [4]. Besides, the EC50 in assay [5] worked out at 1.3 µM; on Melanocortin receptor 4 [7], 0.0058 µM; on Melanocortin receptor 5 [10] it was 0.28 µM. Besides, the %max in [6] was found to be 56%; at Melanocortin receptor 4 [8], 76%; at Melanocortin receptor 3 [9], 11%; at Melanocortin receptor 5 [11], 48%.
Consider `C[C@@H]1COC(=O)N1CC1(C2CCCCC2)CCN(C(=O)[C@@H](Cc2ccc(Cl)cc2)NC(=O)[C@H]2Cc3ccccc3CN2)CC1`, for which the concentration for half-maximal inhibition (IC50) is 1.7 µM in assay [1], 0.0013 µM at Melanocortin receptor 4 [2], 0.21 µM on Melanocortin receptor 3 [3] and 0.11 µM at Melanocortin receptor 5 [4]. Moreover, the EC50 in assay [5] was determined as 1.3 µM; on Melanocortin receptor 4 [7], 0.0013 µM; on Melanocortin receptor 3 [12], 0.37 µM; at Melanocortin receptor 5 [10], 0.4 µM. Besides, the %max in [6] was 40%; on Melanocortin receptor 4 [8], 68%; at Melanocortin receptor 3 [9], 15%; at Melanocortin receptor 5 [11], 51%.
`O=C(N[C@H](Cc1ccc(Cl)cc1)C(=O)N1CCC(CN2CCCS2(=O)=O)(C2CCCCC2)CC1)[C@H]1Cc2ccccc2CN1`: the IC50 is 1.3 µM in assay [1], 0.00091 µM on Melanocortin receptor 4 [2], 0.31 µM at Melanocortin receptor 3 [3] and 0.17 µM on Melanocortin receptor 5 [4]. The concentration for a half-maximal effect (EC50) was determined as 0.68 µM in assay [5], 0.0053 µM on Melanocortin receptor 4 [7], 0.54 µM at Melanocortin receptor 3 [12] and 0.66 µM on Melanocortin receptor 5 [10]. Besides, the %max in assay [6] came out at 41%; on Melanocortin receptor 4 [8] it was 67%; on Melanocortin receptor 3 [9], 19%; on Melanocortin receptor 5 [11], 41%.
In the case of `CC1(C)CCN(CC2(C3CCCCC3)CCN(C(=O)[C@@H](Cc3ccc(Cl)cc3)NC(=O)[C@H]3Cc4ccccc4CN3)CC2)S1(=O)=O`, the IC50 in assay [1] came to 1.2 µM; on Melanocortin receptor 4 [2], 0.00062 µM; at Melanocortin receptor 3 [3] it was 0.76 µM; at Melanocortin receptor 5 [4], 0.19 µM. The EC50 in assay [5] was determined as 0.46 µM; on Melanocortin receptor 4 [7], 0.0058 µM; at Melanocortin receptor 3 [12], 0.45 µM; at Melanocortin receptor 5 [10] it was 0.85 µM. In addition, the %max turned out to be 27% in assay [6], 74% on Melanocortin receptor 4 [8], 18% on Melanocortin receptor 3 [9] and 39% on Melanocortin receptor 5 [11].
Consider `O=C(N[C@H](Cc1ccc(Cl)cc1)C(=O)N1CCC(CN2CCNC2=O)(C2CCCCC2)CC1)[C@H]1Cc2ccccc2CN1`, for which the IC50 is 1.1 µM in [1], 0.0048 µM at Melanocortin receptor 4 [2], 0.52 µM on Melanocortin receptor 3 [3] and 0.15 µM on Melanocortin receptor 5 [4]. For the same compound, the 50% effective concentration (EC50) in [5] was 0.98 µM; at Melanocortin receptor 4 [7], 0.016 µM; on Melanocortin receptor 3 [12], 0.88 µM; on Melanocortin receptor 5 [10], 0.48 µM. Further, the %max in assay [6] was 39%; at Melanocortin receptor 4 [8] it was 82%; at Melanocortin receptor 3 [9], 23%; at Melanocortin receptor 5 [11] it was 48%.
As to `O=C(N[C@H](Cc1ccc(Cl)cc1)C(=O)N1CCC(CN2C(=O)OCC23CC3)(C2CCCCC2)CC1)[C@H]1Cc2ccccc2CN1`, the IC50 in [1] is 2.4 µM; on Melanocortin receptor 4 [2], 0.0046 µM; at Melanocortin receptor 3 [3] it was 0.49 µM; at Melanocortin receptor 5 [4], 0.17 µM. Besides, the EC50 in assay [5] came to 2.6 µM; on Melanocortin receptor 4 [7] it was 0.0061 µM; at Melanocortin receptor 3 [12], 0.99 µM; on Melanocortin receptor 5 [10] it was 0.62 µM. Also, the %max in [6] amounted to 48%; at Melanocortin receptor 4 [8] it was 68%; at Melanocortin receptor 3 [9], 15%; on Melanocortin receptor 5 [11] it was 36%.
With `CC(C)N(CC1(C2CCCCC2)CCN(C(=O)[C@@H](Cc2ccc(Cl)cc2)NC(=O)[C@H]2Cc3ccccc3CN2)CC1)S(C)(=O)=O`, the IC50 is 1.3 µM in assay [1], 0.0021 µM on Melanocortin receptor 4 [2], 0.38 µM at Melanocortin receptor 3 [3] and 0.2 µM on Melanocortin receptor 5 [4]. In addition, the EC50 is 1.5 µM in assay [5], 0.0056 µM at Melanocortin receptor 4 [7], 0.59 µM on Melanocortin receptor 3 [12] and 0.8 µM on Melanocortin receptor 5 [10]. Moreover, the %max in assay [6] was 39%; at Melanocortin receptor 4 [8], 86%; at Melanocortin receptor 3 [9], 23%; on Melanocortin receptor 5 [11], 48%.
As for `CCOC(=O)N(CC1(C2CCCCC2)CCN(C(=O)[C@@H](Cc2ccc(Cl)cc2)NC(=O)[C@H]2Cc3ccccc3CN2)CC1)C(C)C`, the half-maximal inhibitory concentration (IC50) in assay [1] was 1.1 µM; on Melanocortin receptor 4 [2], 0.0081 µM; at Melanocortin receptor 3 [3], 0.63 µM; at Melanocortin receptor 5 [4], 0.63 µM. In addition, the EC50 in assay [5] amounted to 0.97 µM; on Melanocortin receptor 4 [7] it was 0.014 µM; at Melanocortin receptor 3 [12] it was 0.55 µM; on Melanocortin receptor 5 [10], 3.6 µM. Further, the %max in assay [6] was found to be 26%; at Melanocortin receptor 4 [8] it was 95%; on Melanocortin receptor 3 [9], 37%; on Melanocortin receptor 5 [11], 51%.
Regarding `CC1(C)COC(=O)N1CC1(C2CCCCC2)CCN(C(=O)[C@@H](Cc2ccc(Cl)cc2)NC(=O)[C@H]2Cc3ccccc3CN2)CC1`, the IC50 in assay [1] stood at 1.1 µM; on Melanocortin receptor 4 [2], 0.0008 µM; on Melanocortin receptor 3 [3] it was 0.23 µM; on Melanocortin receptor 5 [4] it was 0.08 µM. In addition, the results for the EC50 (in assay [5]; at Melanocortin receptor 4 [7]; at Melanocortin receptor 5 [10]) were 0.55 µM, 0.0024 µM and 0.34 µM, respectively. The %max in assay [6] was determined as 35%; on Melanocortin receptor 4 [8], 82%; on Melanocortin receptor 3 [9], 6%; on Melanocortin receptor 5 [11], 38%.
Take `C[C@H]1COC(=O)N1CC1(C2CCCCC2)CCN(C(=O)[C@@H](Cc2ccc(Cl)cc2)NC(=O)[C@H]2Cc3ccccc3CN2)CC1`: the IC50 came to 2.4 µM in assay [1], 0.0045 µM on Melanocortin receptor 4 [2], 0.84 µM at Melanocortin receptor 3 [3] and 0.22 µM on Melanocortin receptor 5 [4]. Also, the EC50 in [5] came out at 2.1 µM; on Melanocortin receptor 4 [7], 0.0086 µM; at Melanocortin receptor 3 [12], 0.64 µM; at Melanocortin receptor 5 [10] it was 0.4 µM. Also, the %max in assay [6] worked out at 72%; on Melanocortin receptor 4 [8], 90%; at Melanocortin receptor 3 [9], 19%; at Melanocortin receptor 5 [11], 53%.
Regarding `O=C(N[C@H](Cc1ccc(Cl)cc1)C(=O)N1CCC(Cn2cncn2)(C2CCCCC2)CC1)[C@H]1Cc2ccccc2CN1`, the %max was 95% in assay [6], 32% at Melanocortin receptor 3 [9] and 61% at Melanocortin receptor 5 [11].
With `CN1CCN(CC2(C3CCCCC3)CCN(C(=O)[C@@H](Cc3ccc(Cl)cc3)NC(=O)[C@H]3Cc4ccccc4CN3)CC2)C1=O`, the IC50 amounted to 1.8 µM in assay [1], 0.0043 µM on Melanocortin receptor 4 [2], 0.66 µM on Melanocortin receptor 3 [3] and 0.16 µM at Melanocortin receptor 5 [4]. Also, the EC50 in assay [5] is 0.95 µM; at Melanocortin receptor 4 [7], 0.016 µM; on Melanocortin receptor 3 [12], 1.2 µM; at Melanocortin receptor 5 [10], 0.46 µM. Also, the %max amounted to 43% in assay [6], 88% at Melanocortin receptor 4 [8], 24% at Melanocortin receptor 3 [9] and 63% on Melanocortin receptor 5 [11].
Turning to `O=C(N[C@H](Cc1ccc(Cl)cc1)C(=O)N1CCC(CN2C(=O)OCC23CCC3)(C2CCCCC2)CC1)[C@H]1Cc2ccccc2CN1`, the IC50 in assay [1] was determined as 2.1 µM; at Melanocortin receptor 4 [2] it was 0.0079 µM; at Melanocortin receptor 3 [3], 0.4 µM; on Melanocortin receptor 5 [4], 0.21 µM. Besides, the EC50 in assay [5] amounted to 1.7 µM; on Melanocortin receptor 4 [7] it was 0.015 µM; at Melanocortin receptor 5 [10], 1.2 µM. Also, the %max worked out at 25% in assay [6], 65% at Melanocortin receptor 4 [8], 6% at Melanocortin receptor 3 [9] and 32% at Melanocortin receptor 5 [11].

The record behind these values is ChEMBL document CHEMBL1138149, “Optimization of a privileged structure leading to potent and selective human melanocortin subtype-4 receptor ligands” (Bioorg Med Chem Lett, 2006).
